Test results as given in patent US20210386367A1, “DEVICES AND SYSTEMS FOR GASTROINTESTINAL MICROBIOME DETECTION AND MANIPULATION” (Progenity, Inc., priority 2018, published 2021).
≈ marks a conversion by molar mass, not a printed value. Entries after “also recorded” stand apart in the source; their conditions may differ. Read-outs that look alike come from different tables or passages of the source.

Experiments:
Type in all cases: cell-based
[1] = test system: Staphylococcus aureus; assay: Broth microdilution MIC, 50 clinical isolates (28 MRSA)
Procedure: (§1) Minimal inhibitory concentration (MIC) values were determined by broth microdilution or agar dilution in accordance with guidelines from the Clinical and Laboratory Standards Institute (CLSI; (1) “Methods for Dilution Antimicrobial Susceptibility Tests for Bacteria That Grow Aerobically; Approved Standard; 11th ed.” CLSI standard M07-A11, 2018; (2) “Performance Standards for Antimicrobial Susceptibility Testing; Twenty-Eighth Informational Supplement,” CLSI document M100-S28, 2018; and (3) “Methods for Antimicrobial Susceptibility Testing of Anaerobic Bacteria; Approved Standard—Eighth Edition,” CLSI document M11-A8, 2012).
(§2) Tested aerobically by broth microdilution: • Escherichia coli, n=50 • Klebsiella spp., n=50 • Pseudomonas aeruginosa, n=50 • Streptococcus spp., n=50 • Staphylococcus aureus, n=50 • Enterococcus faecalis, n=50 • Enterobacter aerogenes, n=50 • Proteus mirabilis, n=50
(§3) Broth microdilution testing of aerobic bacteria was conducted in cation-adjusted Mueller Hinton broth (MHBII). For testing streptococci, lysed horse blood (LHB) was added to MHBII broth at a final concentration of 3%. Where LHB was used, it was added after filtering.
(§4) Broth microdilution susceptibility testing in 96-well microplates was conducted in accordance with CLSI methods (1) and (2). Automated liquid handlers were used to conduct serial dilutions and liquid transfers, including the Multidrop 384 (Labsystems, Helsinki, Finland), Biomek 2000, and the Biomek FX (Beckman Coulter, Fullerton, Calif.). All wells in columns 2 through 12 of a standard 96-well microdilution plate (Costar 3795) were filled with 150 μL of the appropriate diluent. Then, 300 μL of the test agents were added to the wells of column 1 of the plates at 100× the highest final concentration to be tested. Serial two-fold dilutions were made across the rows through column 11 using the Biomek 2000. The wells of column 12 contained no drug and served as the growth control wells. This plate served as the “mother plate” from which MIC assay plates or “daughter plates” were made.
(§5) The daughter plates were loaded with 190 μL per well of the appropriate medium using the Multidrop 384. The daughter plates were created using the Biomek FX which transferred 2 μL of drug solution from each well of a mother plate to each corresponding well of the daughter plate in a single step. A standardized inoculum of each test organism was prepared per CLSI methods (1) to equal a 0.5 McFarland standard, followed by a dilution of 1:20 for aerobes and 1:10 for anaerobes. The plates were then inoculated with 10 μL of the diluted inoculum using the Biomek 2000 from low to high drug concentration, resulting in a final concentration of approximately 5×10^5 CFU/mL per well. An un-inoculated plate was incubated in parallel for each medium for the purpose of assessing solubility of the drug in the test media.
(§6) Inoculated plates were stacked 3 or 4 high, covered with a sterile lid on the top plate, placed into boxes with CO2 planchets (streptococci) or plastic bags (all other isolates). Plates were incubated at 35° C. for 16-24 hr in ambient air for aerobes or for 42-48 hr in the anaerobic environment of the Bactron II anaerobe chamber (Sheldon Manufacturing Co.; Cornelius, Oreg.). Following incubation, the microplates were removed from the incubator and viewed from the bottom using a plate viewer. The MIC values were read and recorded as the lowest concentration of drug that inhibited visible growth of the organism as per CLSI methods (1) and (2).

[2] = test system: Streptococcus pyogenes; assay: Broth microdilution MIC, 19 clinical isolates
Procedure: as §1, §2, §3, §4, §5, §6

[3] = test system: Streptococcus agalactiae; assay: Broth microdilution MIC, 20 clinical isolates
Procedure: as §1, §2, §3, §4, §5, §6

[4] = test system: Streptococcus spp.; assay: Broth microdilution MIC, 54 clinical isolates
Procedure: as §1, §2, §3, §4, §5, §6

[5] = test system: Viridans group Streptococcus; assay: Broth microdilution MIC, 15 clinical isolates
Procedure: as §1, §2, §3, §4, §5, §6

[6] = test system: Streptococcus pyogenes clinical isolates; assay: MIC distribution against clinical isolates; conditions: 19 S. pyogenes isolates
Text: (§7) As used herein, “minimum inhibitory concentration” or “MIC” refers to the lowest concentration of an antimicrobial agent, for example, an antimicrobial agent as described herein, required to inhibit the growth of an organism. […] “MIC90” represents the MIC value at which ≥90% of the strains within a test population are inhibited; the 90th percentile.
(§8) Many susceptibility testing methods are known in the art and can be used as described herein (see, e.g., Jorgensen and Ferraro (2009) Clinical Infectious Diseases 49:1749-1755; and Maurer et al. (2017) Infectious Disease Reports 9:6839; the entire contents of each of the foregoing are incorporated herein by reference). For example, antimicrobial susceptibility can be determined using conventional culture based methods such as the broth or agar dilution test. In these dilution tests, the bacterial isolate of interest is inoculated onto different media that include serial dilutions of an antimicrobial agent, and incubated under appropriate conditions (e.g., overnight at 37° C.) to allow for growth to occur. Following the incubation period, the media is examined to determine bacterial growth. The lowest concentration of antibiotic that prevents growth represents the minimal inhibitory concentration (MIC). Broth dilution tests can be miniaturized and mechanized allowing for reproducibility and high throughput.

[7] = test system: Viridans group Streptococci clinical isolates; assay: MIC distribution against clinical isolates; conditions: 15 Viridans group Streptococci isolates
Text: as §7, §8

[8] = test system: Enterococcus faecalis; assay: Broth microdilution MIC, 50 clinical isolates
Procedure: as §1, §2, §3, §4, §5, §6

[9] = 20 Streptococcus agalactiae clinical isolates
[10] = 54 Streptococcus spp. clinical isolates
[11] = 15 Viridans group Streptococci clinical isolates

## C[C@@H](O)[C@H]1C(=O)N2C(C(=O)O)=C(S[C@@H]3CN[C@H](C(=O)N(C)C)C3)[C@H](C)[C@H]12 [meropenem]
[1]
  Mode: 0.12 µg/mL
[1]; Staphylococcus aureus, read-out: MIC50
  MIC50: 1 µg/mL (≈ 2.61 µM)
[1]; Staphylococcus aureus, read-out: MIC90
  MIC90: 8 µg/mL (≈ 20.9 µM)
[2]
  % S: 100%
  MIC range: ≤0.002-0.03^ μg/mL
  Mode: 0.004 µg/mL
[2]; Streptococcus pyogenes, read-out: MIC50
  MIC50: 0.004 µg/mL (≈ 0.0104 µM)
[2]; Streptococcus pyogenes, read-out: MIC90
  MIC90: 0.008 µg/mL (≈ 0.0209 µM)
[3]; [9]
  MIC50: 0.03 µg/mL (≈ 0.0782 µM)
  MIC90: 0.03 µg/mL (≈ 0.0782 µM)
  MIC range: 0.015 to 0.06 µg/mL
[3]; 20 Streptococcus agalactiae clinical isolates, MXF by FDA breakpoints
  % S: 100%
[3]; Streptococcus agalactiae, read-out: MIC50
  MIC50: 0.03 µg/mL (≈ 0.0782 µM)
[3]; Streptococcus agalactiae, read-out: MIC90
  MIC90: 0.03 µg/mL (≈ 0.0782 µM)
[3]; modal MIC, 20 Streptococcus agalactiae clinical isolates
  Mode: 0.03 µg/mL
[4]
  isolates susceptible: All
  relative activity among drugs tested: most active drug evaluated; also recorded: most active agent
[4]; [10]
  MIC50: 0.015 µg/mL (≈ 0.0391 µM)
  MIC90: 0.03 µg/mL (≈ 0.0782 µM)
  MIC range: ≤0.002 to 0.5 µg/mL
[4]; 54 Streptococcus spp. clinical isolates, MXF by FDA breakpoints
  % S: 100%
[4]; Streptococcus, read-out: MIC50
  MIC50: 0.015 µg/mL (≈ 0.0391 µM)
[4]; Streptococcus, read-out: MIC90
  MIC90: 0.03 µg/mL (≈ 0.0782 µM)
[4]; modal MIC, 54 Streptococcus spp. clinical isolates
  Mode: 0.03 µg/mL
[5]; [11]
  MIC50: 0.015 µg/mL (≈ 0.0391 µM)
  MIC90: 0.5 µg/mL (≈ 1.3 µM)
  MIC range: 0.004 to 0.5 µg/mL
[5]; 15 Viridans group Streptococci clinical isolates, MXF by FDA breakpoints
  % S: 100%
[5]; Streptococcus, read-out: MIC50
  MIC50: 0.015 µg/mL (≈ 0.0391 µM)
[5]; Streptococcus, read-out: MIC90
  MIC90: 0.5 µg/mL (≈ 1.3 µM)
[5]; modal MIC, 15 Viridans group Streptococci clinical isolates
  Mode: 0.015 µg/mL
[6]; MIC 0.004 μg/mL
  Cumulative percentage of isolates inhibited at MIC: 78.9%
  Number of test isolates at MIC: 14
[6]; MIC 0.008 μg/mL
  Cumulative percentage of isolates inhibited at MIC: 94.7%
  Number of test isolates at MIC: 3
[6]; MIC 0.03 μg/mL
  Cumulative percentage of isolates inhibited at MIC: 100.0%
  Number of test isolates at MIC: 1
[6]; MIC ≤0.002 μg/mL
  Cumulative percentage of isolates inhibited at MIC: 5.3%
  Number of test isolates at MIC: 1
[7]; MIC 0.004 μg/mL
  Cumulative percentage of isolates inhibited at MIC: 6.7%
  Number of test isolates at MIC: 1
[7]; MIC 0.008 μg/mL
  Cumulative percentage of isolates inhibited at MIC: 26.7%
  Number of test isolates at MIC: 3
[7]; MIC 0.015 μg/mL
  Cumulative percentage of isolates inhibited at MIC: 60.0%
  Number of test isolates at MIC: 5
[7]; MIC 0.03 μg/mL
  Cumulative percentage of isolates inhibited at MIC: 80.0%
  Number of test isolates at MIC: 3
[7]; MIC 0.5 μg/mL
  Cumulative percentage of isolates inhibited at MIC: 100.0%
  Number of test isolates at MIC: 2
[7]; MIC […]
  Cumulative percentage of isolates inhibited at MIC: 86.7%
  Number of test isolates at MIC: 1
[8]
  Mode: 4 µg/mL
[8]; Enterococcus faecalis, read-out: MIC50
  MIC50: 4 µg/mL (≈ 10.4 µM)
[8]; Enterococcus faecalis, read-out: MIC90
  MIC90: 8 µg/mL (≈ 20.9 µM)
